In PubChem BioAssay AID1259407 (Chemical Carcinogenesis Research Information System (CCRIS), 2018):
Activity calls are given as the source filed them. How the calls were made is not given here.

System: CCRIS mutagenicity, Ames/micronucleus/aberration tests
Assay: CCRIS mutagenicity studies
[1] = Test System: AMES SALMONELLA TYPHIMURIUM, Strain/Indicator: TA98, Metabolic Activation: NONE, Method: PREINCUBATION
[2] = Test System: AMES SALMONELLA TYPHIMURIUM, Strain/Indicator: TA100, Metabolic Activation: NONE, Method: PREINCUBATION

Structure (SMILES): c1ccc(Oc2ccccc2)cc1
- mutagenic call (Test System: AMES SALMONELLA TYPHIMURIUM, Strain/Indicator: TA98, Metabolic Activation: HAMSTER, LIVER, S-9, AROCLOR 1254, Method: PREINCUBATION): inactive; negative
- mutagenic call [1]: inactive; negative
- mutagenic call (Test System: AMES SALMONELLA TYPHIMURIUM, Strain/Indicator: TA98, Metabolic Activation: RAT, LIVER, S-9, AROCLOR 1254, Method: PREINCUBATION): inactive; negative
- mutagenic call (Test System: AMES SALMONELLA TYPHIMURIUM, Strain/Indicator: TA100, Metabolic Activation: HAMSTER, LIVER, S-9, AROCLOR 1254, Method: PREINCUBATION): inactive; negative
- mutagenic call [2]: inactive; negative
- mutagenic call (Test System: AMES SALMONELLA TYPHIMURIUM, Strain/Indicator: TA100, Metabolic Activation: RAT, LIVER, S-9, AROCLOR 1254, Method: PREINCUBATION): inactive; negative
- mutagenic call (Test System: AMES SALMONELLA TYPHIMURIUM, Strain/Indicator: TA1535, Metabolic Activation: HAMSTER, LIVER, S-9, AROCLOR 1254, Method: PREINCUBATION): inactive; negative
- mutagenic call (Test System: AMES SALMONELLA TYPHIMURIUM, Strain/Indicator: TA1535, Metabolic Activation: NONE, Method: PREINCUBATION): inactive; negative
- mutagenic call (Test System: AMES SALMONELLA TYPHIMURIUM, Strain/Indicator: TA1535, Metabolic Activation: RAT, LIVER, S-9, AROCLOR 1254, Method: PREINCUBATION): inactive; negative
- mutagenic call (Test System: AMES SALMONELLA TYPHIMURIUM, Strain/Indicator: TA1537, Metabolic Activation: HAMSTER, LIVER, S-9, AROCLOR 1254, Method: PREINCUBATION): inactive; negative
- mutagenic call (Test System: AMES SALMONELLA TYPHIMURIUM, Strain/Indicator: TA1537, Metabolic Activation: NONE, Method: PREINCUBATION): inactive; negative
- mutagenic call (Test System: AMES SALMONELLA TYPHIMURIUM, Strain/Indicator: TA1537, Metabolic Activation: RAT, LIVER, S-9, AROCLOR 1254, Method: PREINCUBATION): inactive; negative

Structure (SMILES): Cc1ccccc1C(=O)Cl
- mutagenic call [1]: inactive; negative
- mutagenic call (Test System: AMES SALMONELLA TYPHIMURIUM, Strain/Indicator: TA98, Metabolic Activation: RAT LIVER S-9, PCB, Method: PREINCUBATION): active; positive
- mutagenic call [2]: inactive; negative
- mutagenic call (Test System: AMES SALMONELLA TYPHIMURIUM, Strain/Indicator: TA100, Metabolic Activation: RAT LIVER S-9, PCB, Method: PREINCUBATION): active; positive
- mutagenic call (Test System: AMES SALMONELLA TYPHIMURIUM, Strain/Indicator: TA104, Metabolic Activation: NONE, Method: PREINCUBATION): inactive; negative
- mutagenic call (Test System: AMES SALMONELLA TYPHIMURIUM, Strain/Indicator: TA104, Metabolic Activation: RAT LIVER S-9, PCB, Method: PREINCUBATION): active; positive
- mutagenic call (Test System: E.COLI, Strain/Indicator: WP2 UVRA, Metabolic Activation: NONE, Method: PREINCUBATION): active; positive
- mutagenic call (Test System: E.COLI, Strain/Indicator: WP2 UVRA, Metabolic Activation: RAT LIVER S-9, PCB, Method: PREINCUBATION): active; positive

Structure (SMILES): COc1cc2c3c(c1O)-c1cc4c(cc1C[C@@H]3N(C)CC2)OCO4
- mutagenic call (Test System: AMES SALMONELLA TYPHIMURIUM, Strain/Indicator: TA100, Metabolic Activation: RAT, LIVER, S-9, PHENOBARBITAL AND BETA-NAPHTHOFLAVONE, Method: PREINCUBATION): inactive; negative

Structure (SMILES): CC(C)[C@@H]1CC[C@@H](C)C[C@H]1O
- mutagenic call (Test System: AMES SALMONELLA TYPHIMURIUM, Strain/Indicator: TA97, Metabolic Activation: NONE, Method: PREINCUBATION): inactive; negative
- mutagenic call (Test System: AMES SALMONELLA TYPHIMURIUM, Strain/Indicator: TA97, Metabolic Activation: RAT, LIVER, S-9, AROCLOR 1254, Method: PREINCUBATION): inactive; negative
- mutagenic call (Test System: AMES SALMONELLA TYPHIMURIUM, Strain/Indicator: TA97A, Metabolic Activation: NONE, Method: STANDARD PLATE): inactive; negative
- mutagenic call (Test System: AMES SALMONELLA TYPHIMURIUM, Strain/Indicator: TA97A, Metabolic Activation: RAT LIVER S-9, AROCLOR 1254, Method: STANDARD PLATE): inactive; negative
- mutagenic call (Test System: AMES SALMONELLA TYPHIMURIUM, Strain/Indicator: TA98, Metabolic Activation: NONE, Method: STANDARD PLATE): inactive; negative
- mutagenic call (Test System: AMES SALMONELLA TYPHIMURIUM, Strain/Indicator: TA98, Metabolic Activation: RAT LIVER S-9, AROCLOR 1254, Method: STANDARD PLATE): inactive; negative
- mutagenic call (Test System: AMES SALMONELLA TYPHIMURIUM, Strain/Indicator: TA98, Metabolic Activation: RAT, LIVER, S-9, AROCLOR 1254, Method: STANDARD PLATE): inactive; negative
- mutagenic call (Test System: AMES SALMONELLA TYPHIMURIUM, Strain/Indicator: TA100, Metabolic Activation: NONE, Method: STANDARD PLATE): inactive; negative
- mutagenic call (Test System: AMES SALMONELLA TYPHIMURIUM, Strain/Indicator: TA100, Metabolic Activation: RAT LIVER S-9, AROCLOR 1254, Method: STANDARD PLATE): inactive; negative
- mutagenic call (Test System: AMES SALMONELLA TYPHIMURIUM, Strain/Indicator: TA100, Metabolic Activation: RAT, LIVER, S-9, AROCLOR 1254, Method: STANDARD PLATE): inactive; negative
- mutagenic call (Test System: AMES SALMONELLA TYPHIMURIUM, Strain/Indicator: TA102, Metabolic Activation: NONE, Method: PREINCUBATION): inactive; negative
- mutagenic call (Test System: AMES SALMONELLA TYPHIMURIUM, Strain/Indicator: TA102, Metabolic Activation: NONE, Method: STANDARD PLATE): inactive; negative
- mutagenic call (Test System: AMES SALMONELLA TYPHIMURIUM, Strain/Indicator: TA102, Metabolic Activation: RAT LIVER S-9, AROCLOR 1254, Method: STANDARD PLATE): inactive; negative
- mutagenic call (Test System: AMES SALMONELLA TYPHIMURIUM, Strain/Indicator: TA102, Metabolic Activation: RAT, LIVER, S-9, AROCLOR 1254, Method: PREINCUBATION): inactive; negative
- mutagenic call (Test System: AMES SALMONELLA TYPHIMURIUM, Strain/Indicator: TA1535, Metabolic Activation: NONE, Method: STANDARD PLATE): inactive; negative
- mutagenic call (Test System: AMES SALMONELLA TYPHIMURIUM, Strain/Indicator: TA1535, Metabolic Activation: RAT, LIVER, S-9, AROCLOR 1254, Method: STANDARD PLATE): inactive; negative
- mutagenic call (Test System: AMES SALMONELLA TYPHIMURIUM, Strain/Indicator: TA1537, Metabolic Activation: NONE, Method: STANDARD PLATE): inactive; negative
- mutagenic call (Test System: AMES SALMONELLA TYPHIMURIUM, Strain/Indicator: TA1537, Metabolic Activation: RAT, LIVER, S-9, AROCLOR 1254, Method: STANDARD PLATE): inactive; negative
